This test deals with BDF1 mice, P388 leukemia ip, median survival T/C. As to the kind of experiment: NCI In Vivo Anticancer Drug Screen. Data for tumor model P388 Leukemia (intraperitoneal) in B6D2F1 (BDF1) mice. The note with it: endpoint: median survival time, higher = longer survival. In a few lines: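 Mice carrying the transplantable tumour receive compound or vehicle. Survival is followed in each arm, and the treated measure is divided by the vehicle measure.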

The mark [1] stands for this setting: dose: 25.0 mg/kg/injection, schedule: Q01DX009 (ip), vehicle: Klucel (hydroxypropylcellulose) (HPC).
The mark [2] stands for this setting: dose: 50.0 mg/kg/injection, schedule: Q01DX009 (ip), vehicle: Klucel (hydroxypropylcellulose) (HPC).
The mark [3] stands for this setting: dose: 100.0 mg/kg/injection, schedule: Q01DX009 (ip), vehicle: Klucel (hydroxypropylcellulose) (HPC).
[4] abbreviates: dose: 100.0 mg/kg/injection, schedule: Q04DX003 (ip), vehicle: Klucel (hydroxypropylcellulose) (HPC).
Where [5] appears, read: dose: 200.0 mg/kg/injection, schedule: Q01DX009 (ip), vehicle: Klucel (hydroxypropylcellulose) (HPC).
[6] abbreviates: dose: 200.0 mg/kg/injection, schedule: Q04DX003 (ip), vehicle: Klucel (hydroxypropylcellulose) (HPC).
Where [7] appears, read: dose: 400.0 mg/kg/injection, schedule: Q04DX003 (ip), vehicle: Klucel (hydroxypropylcellulose) (HPC).
Setting [8] is: dose: 100.0 mg/kg/injection, schedule: Q01DX009 (ip), vehicle: saline with Tween-80.
Setting [9] is: dose: 200.0 mg/kg/injection, schedule: Q01DX009 (ip), vehicle: saline with Tween-80.
[10] abbreviates: dose: 400.0 mg/kg/injection, schedule: Q01DX009 (ip), vehicle: saline with Tween-80.
Where [11] appears, read: dose: 100.0 mg/kg/injection, schedule: Q04DX003 (ip), vehicle: saline with Tween-80.
Setting [12] is: dose: 200.0 mg/kg/injection, schedule: Q04DX003 (ip), vehicle: saline with Tween-80.
[13] abbreviates: dose: 50.0 mg/kg/injection, schedule: Q01DX009 (ip), vehicle: saline with Tween-80.
[14] abbreviates: dose: 12.5 mg/kg/injection, schedule: Q01DX009 (ip), vehicle: Klucel (hydroxypropylcellulose) (HPC).
Where [15] appears, read: dose: 75.0 mg/kg/injection, schedule: Q01DX009 (ip), vehicle: Klucel (hydroxypropylcellulose) (HPC).
[16] abbreviates: dose: 115.0 mg/kg/injection, schedule: Q01DX009 (ip), vehicle: Klucel (hydroxypropylcellulose) (HPC).
Where [17] appears, read: dose: 50.0 mg/kg/injection, schedule: Q01DX009 (ip), vehicle: saline.
Where [18] appears, read: dose: 100.0 mg/kg/injection, schedule: Q01DX009 (ip), vehicle: saline.
[19] abbreviates: dose: 25.0 mg/kg/injection, schedule: Q01DX009 (ip), vehicle: saline.

SMILES strings stand for the structures. Values joined by “and” are separate entries in the source; they are usually repeats but may differ in a detail not shown here. Equal values may be shown once. Toxic doses and inconclusive results are not listed.

Turning to `CC(=O)O[C@H]1CC[C@H]2[C@@H]3CC[C@H]4CC=C(C#N)C[C@]4(C)[C@H]3CC[C@]12C`, the T/C (dose: 0.75 mg/kg/injection, schedule: Q01DX009 (ip), vehicle: Klucel (hydroxypropylcellulose) (HPC)) is 95 % of control; the T/C (dose: 1.5 mg/kg/injection, schedule: Q01DX009 (ip), vehicle: Klucel (hydroxypropylcellulose) (HPC)) was 92 % of control and 100 % of control; the T/C (dose: 3.0 mg/kg/injection, schedule: Q01DX009 (ip), vehicle: Klucel (hydroxypropylcellulose) (HPC)) is 104 % of control; the T/C (dose: 6.0 mg/kg/injection, schedule: Q01DX009 (ip), vehicle: Klucel (hydroxypropylcellulose) (HPC)) was 103 % of control; the T/C under setting [1] was 88 % of control; the T/C under setting [2] is 100 % of control. Also, the T/C reads like this: under setting [3], 95 % of control; under setting [4], 109 % of control; under setting [5], 100 % of control; under setting [6], 109 % of control; under setting [7], 86 % of control.
On to `COC(=O)c1ccc(OS(=O)(=O)c2cccc([N+](=O)[O-])c2)cc1`, for which the T/C was 88 % of control under setting [8]; 100 % of control under setting [4]; 100 % of control under setting [9]; 100 % of control under setting [6]; 88 % of control under setting [10]; 100 % of control under setting [7].
On to `CC(=O)CC(=O)NC1CCCCC1`, for which the T/C is, setting by setting: under setting [8], 100 % of control; under setting [9], 100 % of control; under setting [10], 100 % of control.
Take `O=CC(/C=N\Nc1ccccc1)=N/Nc1ccccc1`: the T/C is 100 % of control (dose: 20.0 mg/kg/injection, schedule: Q01DX009 (ip), vehicle: saline with Tween-80) and 89 % of control (dose: 80.0 mg/kg/injection, schedule: Q01DX009 (ip), vehicle: saline with Tween-80).
`CCCCN(C)N=Nc1ccccc1C(N)=O`: the T/C is 100 % of control (dose: 50.0 mg/kg/injection, schedule: Q04DX003 (ip), vehicle: Klucel (hydroxypropylcellulose) (HPC)); 120 % of control under setting [8]; 97 % of control under setting [4]; 109 % of control under setting [6]; 103 % of control under setting [7].
As to `OC(Cc1ccnc2ccccc12)C(Cl)(Cl)Cl` (stereo unspecified), the T/C runs as follows: (dose: 50.0 mg/kg/injection, schedule: Q04DX003 (ip), vehicle: saline with Tween-80) 100 % of control; under setting [8], 100 % of control; under setting [4], 105 % of control; under setting [11], 100 % of control; under setting [9], 100 % of control; under setting [6], 100 % of control. Moreover, the T/C is, setting by setting: under setting [12], 105 % of control; under setting [10], 100 % of control; under setting [7], 115 % of control.
Turning to `CC(=O)O.CC(=O)O.[Co+2].[NH-]C(CCC(N)=O)C(=O)O.[NH-]C(CCC(N)=O)C(=O)O` (stereo unspecified), the T/C runs as follows: (dose: 12.5 mg/kg/injection, schedule: Q01DX009 (ip), vehicle: saline with Tween-80) 87 % of control; (dose: 25.0 mg/kg/injection, schedule: Q01DX009 (ip), vehicle: saline with Tween-80) 93 % of control; under setting [13], 98 % of control.
Turning to `NNC(=O)c1c[nH]c2ccccc2c1=O`, the T/C runs as follows: under setting [14], 104 % of control; under setting [1], 104 % of control; under setting [2], 91 % of control; under setting [15], 108 % of control; under setting [16], 91 % of control; (dose: 170.0 mg/kg/injection, schedule: Q01DX009 (ip), vehicle: Klucel (hydroxypropylcellulose) (HPC)) 95 % of control.
Turning to `CCC(=O)NC1=CC(=O)c2ccccc2C1=O`, the T/C was 109 % of control under setting [14], 109 % of control under setting [1] and 122 % of control under setting [2].
In the case of `COC(=O)c1ccc(C(=O)OC)c(=O)[nH]1`, the T/C under setting [3] is 100 % of control; the T/C under setting [4] is 104 % of control; the T/C under setting [5] is 95 % of control; the T/C under setting [6] is 104 % of control; the T/C (dose: 400.0 mg/kg/injection, schedule: Q01DX009 (ip), vehicle: Klucel (hydroxypropylcellulose) (HPC)) was 91 % of control; the T/C under setting [7] is 104 % of control.
For the compound `COC(=O)c1c2ccccc2cn1-c1ccccc1`, the T/C is 100 % of control under setting [13], 109 % of control under setting [8] and 100 % of control under setting [9].
Consider `C1CC2C(CCCC23OCCO3)C2(C1)OCCO2` (stereo unspecified), for which the T/C by setting is: under setting [2], 113 % of control; under setting [3], 86 % of control; (dose: 100.0 mg/kg/injection, schedule: Q04DX003 (ip), vehicle: other) 100 % of control; under setting [5], 95 % of control; (dose: 200.0 mg/kg/injection, schedule: Q04DX003 (ip), vehicle: other) 95 % of control; (dose: 400.0 mg/kg/injection, schedule: Q04DX003 (ip), vehicle: other) 100 % of control.
`CC(=O)N(C(C)=O)c1cc([N+](=O)[O-])ccc1C`: the T/C was 106 % of control under setting [11] and 93 % of control under setting [12].
Consider `CN(C)c1ccc(/C=C/C2CC[N-]C3C(O)CCCC23)cc1.CN(C)c1ccc(/C=C/C2CC[N-]C3C(O)CCCC23)cc1.CN(C)c1ccc(/C=C/C2CC[N-]C3C(O)CCCC23)cc1.[Fe+3]` (stereo unspecified), for which the T/C was 110 % of control (dose: 100.0 mg/kg/injection, schedule: Q04DX002 (ip), vehicle: saline with Tween-80) and 122 % of control (dose: 200.0 mg/kg/injection, schedule: Q04DX002 (ip), vehicle: saline with Tween-80).
`CS(=O)(=O)OCCn1c(=O)n(CCOS(C)(=O)=O)c(=O)n(CCOS(C)(=O)=O)c1=O`: the T/C by setting is: (dose: 100.0 mg/kg/injection, schedule: Q01DX009 (ip), vehicle: saline sonified) 90 % of control; under setting [11], 90 % of control; (dose: 200.0 mg/kg/injection, schedule: Q01DX009 (ip), vehicle: saline sonified) 110 % of control; under setting [12], 100 % of control; (dose: 400.0 mg/kg/injection, schedule: Q01DX009 (ip), vehicle: saline sonified) 90 % of control; (dose: 400.0 mg/kg/injection, schedule: Q04DX003 (ip), vehicle: saline with Tween-80) 100 % of control.
With `CC(C)=C=CCN(C)Cc1ccccc1`, the T/C is, setting by setting: under setting [17], 99 % of control; under setting [18], 103 % of control.
As for `CCC[N+]12C(O)C(CC)C3CC1C1N(C)c4ccc(Br)cc4C14CC2C3C4O` (stereo unspecified), the T/C is, setting by setting: under setting [13], 102 % of control; under setting [8], 105 % of control.
Consider `O=C(NC(CSC(=O)c1ccccc1)C(=O)O)OCc1ccccc1` (stereo unspecified), for which the T/C is 95 % of control under setting [2], 95 % of control under setting [3] and 100 % of control under setting [5].
Consider `O=C1NC(=O)C2C3C(C(O)(c4ccccc4)c4ccccn4)=CC(/C3=C(\c3ccccc3)c3ccccn3)C12` (stereo unspecified), for which the T/C is, setting by setting: under setting [14], 100 % of control; under setting [1], 113 % of control; under setting [2], 86 % of control; under setting [4], 109 % of control; under setting [6], 100 % of control; under setting [7], 100 % of control.
For the compound `CCCCOCN(COCCCC)C(C)Cc1ccccc1` (stereo unspecified), under setting [13], the T/C is 122 % of control.
Consider `CCCCN(CCCC)P(=O)(N1CC1)N1CC1`, for which the T/C was 250 % of control (dose: 16.5 mg/kg/injection, schedule: Q01DX009 (ip), vehicle: saline); 118 % of control under setting [19]; 113 % of control (dose: 37.5 mg/kg/injection, schedule: Q01DX009 (ip), vehicle: saline).
Consider `Cc1ccn(C)c(=O)c1`, for which the T/C by setting is: under setting [19], 86 % of control; under setting [17], 86 % of control; under setting [18], 86 % of control and 100 % of control; (dose: 200.0 mg/kg/injection, schedule: Q01DX009 (ip), vehicle: saline) 105 % of control.
Turning to `CCN(CC)CCNc1ccc(N=Nc2cnc3ccccc3c2)c2ccccc12`, the T/C reads like this: under setting [15], 95 % of control; under setting [16], 100 % of control.

Source of the values: PubChem BioAssay AID328 (DTP/NCI, 2004).
